In brackets after ≈: the same amount, converted by molar mass.

Our source for the solubility and solubility in water values is patent publication US8791154B2 (Alcon Research, Ltd., priority 2011, dated 2014).

The nature of this data set: Olopatadine solubility in water and in formulations. Format: physicochemical. The following applies: for solubility: Concentration (mg/mL) of solubilized olopatadine.

`CN(C)CC/C=C1/c2ccccc2COc2ccc(CC(=O)O)cc21` [Olopatadine]: the solubility runs as follows: (formulation with PVP K29/32, SBE-CD, PEG 400 and HPMC, pH 6.96, aqueous with cosolvent or surfactant or cyclodextrin, 4% PVP K29/32, 1.5% SBE-CD, 4% PEG 400, 0.6% HPMC, final pH 6.96) 7460 µg/mL (≈ 22.1 mM); (formulation with PVP K29/32, SBE-CD, PEG 400 and HPMC, pH 7.01, aqueous with cosolvent or surfactant or cyclodextrin, 4% PVP K29/32, 2.3% SBE-CD, 4% PEG 400, 0.6% HPMC, final pH 7.01) 8660 µg/mL (≈ 25.7 mM); (formulation with PVP K29/32, SBE-CD, PEG 400 and HPMC, pH 7.02, aqueous with cosolvent or surfactant or cyclodextrin, 4% PVP K29/32, 2.2% SBE-CD, 4% PEG 400, 0.6% HPMC, final pH 7.02) 8620 µg/mL (≈ 25.5 mM); (formulation with PVP K29/32, SBE-CD, PEG 400 and HPMC, pH 7.04, aqueous with cosolvent or surfactant or cyclodextrin, 4% PVP K29/32, 2.5% SBE-CD, 4% PEG 400, 0.6% HPMC, final pH 7.04) 9040 µg/mL (≈ 26.8 mM); (formulation with PVP K29/32, SBE-CD, PEG 400 and HPMC, pH 7.06, aqueous with cosolvent or surfactant or cyclodextrin, 4% PVP K29/32, 2.0% SBE-CD, 4% PEG 400, 0.6% HPMC, final pH 7.06) 8110 µg/mL (≈ 24 mM); (pH 6.97, aqueous with cosolvent or surfactant or cyclodextrin, 4% PVP K29/32, 1.5% SBE-CD, 4% PEG 400, no HPMC, final pH 6.97) 6130 µg/mL (≈ 18.2 mM). The solubility amounted to 6740 µg/mL (≈ 20 mM) (pH 6.97, aqueous with cosolvent or surfactant or cyclodextrin, 4% PVP K29/32, 2.0% SBE-CD, 4% PEG 400, no HPMC, final pH 6.97); 7340 µg/mL (≈ 21.8 mM) (pH 6.98, aqueous with cosolvent or surfactant or cyclodextrin, 4% PVP K29/32, 2.5% SBE-CD, 4% PEG 400, no HPMC, final pH 6.98); 6970 µg/mL (≈ 20.7 mM) (pH 7.01, aqueous with cosolvent or surfactant or cyclodextrin, 4% PVP K29/32, 2.2% SBE-CD, 4% PEG 400, no HPMC, final pH 7.01); 7160 µg/mL (≈ 21.2 mM) (pH 7.02, aqueous with cosolvent or surfactant or cyclodextrin, 4% PVP K29/32, 2.3% SBE-CD, 4% PEG 400, no HPMC, final pH 7.02). In addition, the solubility in water result (water, pH about 7.0, room temperature, olopatadine by itself) was “about 0.18 w/v %”.
